Measurements as given in patent US20080293696A1, “2-Aminoarylcarboxamides Useful as Cancer Chemotherapeutic Agents” (Bayer Pharmaceuticals Corporation, priority 2004, published 2008).
Counter-ions that a name gives are not always drawn.

The molecules below were run on PAKT/PKB (p-(S473) AKT) in H209 small cell lung carcinoma cells stimulated with Stem Cell Factor (assay: PAKT/PKB Cytoblot Assay with H209 cells (SCF-stimulated p-(S473) AKT)). Details: Homo sapiens, NCI-H209, compound 1 hour, SCF 25 ng/mL 5 minutes, group: between 500 nM and 1 μM (units in value).
Format: cell-based
In short: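 H209 SCLC cells kept overnight in RPMI with 0.1% BSA were pretreated 1 h at 37 °C with compound (0.01–10 μM final), then stimulated with SCF 25 ng/mL for 5 min. After formaldehyde/methanol fixation, p-(S473) AKT was detected in-cell with HRP secondary and ECL chemiluminescence, and IC50 was derived.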

Row | SMILES | IC50
1 | O=C(NCCc1ccc(O)cc1)c1cc(CNc2ccccc2C(=O)Nc2ccc3c(c2)OC(F)(F)O3)ccn1 [Example 129, 4-{[(2-{[(2,2-difluoro-1,3-benzodioxol-5-yl)amino]carbonyl}phenyl)amino]methyl}-N-[2-(4-hydroxyphenyl)ethyl]pyridine-2-carboxamide] | 500 to 1000 nM
2 | CCN1CCCC1CNC(=O)c1cc(CNc2ccccc2C(=O)Nc2ccc3c(c2)OC(F)(F)O3)ccn1 (stereo not drawn) [Example 84, 4-{[(2-{[(2,2-difluoro-1,3-benzodioxol-5-yl)amino]carbonyl}phenyl)amino]methyl}-N-[(1-ethylpyrrolidin-2-yl)methyl]pyridine-2-carboxamide] | 500 to 1000 nM
3 | CCN(CC)CCCC(C)NC(=O)c1cc(CNc2ccccc2C(=O)Nc2ccc3c(c2)OC(F)(F)O3)ccn1 (stereo not drawn) [Example 108, N-[4-(diethylamino)-1-methylbutyl]-4-{[(2-{[(2,2-difluoro-1,3-benzodioxol-5-yl)amino]carbonyl}phenyl)amino]methyl}pyridine-2-carboxamide] | 500 to 1000 nM

Second part, the molecule after the results:

Row | IC50 | SMILES
4 | 500 to 1000 nM | O=C(Nc1ccc2c(c1)OC(F)(F)O2)c1ccccc1NCc1ccnc(CO)c1 [Example 177, N-(2,2-difluoro-1,3-benzodioxol-5-yl)-2-({[2-(hydroxymethyl)pyridin-4-yl]methyl}amino)benzamide]
5 | 500 to 1000 nM | O=C(Nc1ccc2c(c1)C(F)(F)OC(F)(C(F)(F)F)O2)c1cccnc1NCc1ccncc1 (stereo not drawn) [Example 16, 2-[(Pyridin-4-ylmethyl)amino]-N-[2,4,4-trifluoro-2-(trifluoromethyl)-4H-1,3-benzodioxin-6-yl]nicotinamide]

Same assay, conditions: Homo sapiens, NCI-H209, compound 1 hour, SCF 25 ng/mL 5 minutes, group: between 1 and 3 μM

Row | SMILES | IC50
6 | Cc1cc(CNc2ccccc2C(=O)Nc2ccc3c(c2)OC(F)(F)C(F)(F)O3)nc(Cl)n1 [Example 26, 2-{[(2-chloro-6-methylpyrimidin-4-yl)methyl]amino}-N-(2,2,3,3-tetrafluoro-2,3-dihydro-1,4-benzodioxin-6-yl)benzamide] | 1000 to 3000 nM
7 | O=C(Nc1ccc2c(c1)OC(F)(F)C(F)(F)O2)c1ncncc1NCc1ccncc1 [Example 39, 5-[(pyridin-4-ylmethyl)amino]-N-(2,2,3,3-tetrafluoro-2,3-dihydro-1,4-benzodioxin-6-yl)pyrimidine-4-carboxamide] | 1000 to 3000 nM
8 | CCN(CCNC(=O)c1cc(CNc2ccccc2C(=O)Nc2ccc3c(c2)OC(F)(F)O3)ccn1)c1cccc(C)c1 [Example 106, 4-{[(2-{[(2,2-difluoro-1,3-benzodioxol-5-yl)amino]carbonyl}phenyl)amino]methyl}-N-{2-[ethyl(3-methylphenyl)amino]ethyl}pyridine-2-carboxamide] | 1000 to 3000 nM

Same assay, conditions: Homo sapiens, NCI-H209, compound 1 hour, SCF 25 ng/mL 5 minutes, group: less than 500 nM

Row | SMILES | IC50
9 | O=C(NC1CC1)c1cc(CNc2ccccc2C(=O)Nc2ccc3c(c2)OC(F)(F)O3)ccn1 [Example 74, N-cyclopropyl-4-{[(2-{[(2,2-difluoro-1,3-benzodioxol-5-yl)amino]carbonyl}phenyl)amino]methyl}pyridine-2-carboxamide] | < 500 nM
10 | CCCCNC(=O)Nc1cc(CNc2ccccc2C(=O)Nc2ccc3c(c2)OC(F)(F)O3)ccn1 [Example 170, 2-{[(2-{[(butylamino)carbonyl]amino}pyridin-4-yl)methyl]amino}-N-(2,2-difluoro-1,3-benzodioxol-5-yl)benzamide] | < 500 nM
11 | O=C(NCCCN1CCCC1=O)c1cc(CNc2ccccc2C(=O)Nc2ccc3c(c2)OC(F)(F)O3)ccn1 [Example 123, 4-{[(2-{[(2,2-difluoro-1,3-benzodioxol-5-yl)amino]carbonyl}phenyl)amino]methyl}-N-[3-(2-oxopyrrolodin-1-yl)propyl]pyridine-2-carboxamide] | < 500 nM
12 | O=C(Nc1ccc2c(c1)OC(F)(F)O2)c1ccccc1NCc1ccnc(NCCOCCO)c1 [Example 138, N-(2,2-difluoro-1,3-benzodioxol-5-yl)-2-{[(2-{[2-(2-hydroxyethoxy)ethyl]amino}pyridin-4-yl)methyl]amino}benzamide trifluoroacetate(salt)] | < 500 nM
13 | NC(=O)CCNC(=O)c1cc(CNc2ccccc2C(=O)Nc2ccc3c(c2)OC(F)(F)O3)ccn1 [Example 95, N-(3-amino-3-oxopropyl)-4-{[(2{[(2,2-difluoro-1,3-benzodioxol-5-yl)amino]carbonyl}phenyl)amino]methyl}pyridine-2-carboxamide] | < 500 nM
14 | O=C(Nc1ccc2c(c1)OC(F)(F)O2)c1ccccc1NCc1ccnc(NCC(O)CO)c1 (stereo not drawn) [Example 149, N-(2,2-difluoro-1,3-benzodioxol-5-yl)-2-[({2-[(2,3-dihydroxypropyl)amino]pyridin-4-yl}methyl)amino]benzamidetrifluoroacetate (salt)] | < 500 nM
15 | CCCNC(=O)Nc1cc(CNc2ccccc2C(=O)Nc2ccc3c(c2)OC(F)(F)O3)ccn1 [Example 169, N-(2,2-difluoro-1,3-benzodioxol-5-yl)-2-{[(2-{[(propylamino)carbonyl]amino}pyridin-4-yl)methyl]amino}benzamide] | < 500 nM
16 | CS(=O)(=O)CCNC(=O)c1cc(CNc2ccccc2C(=O)Nc2ccc3c(c2)OC(F)(F)O3)ccn1 [Example 83, 4-{[(2-{[(2,2-Difluoro-1,3-benzodioxol-5-yl)amino]carbonyl}phenyl)amino]methyl}-N-[2-(methylsulfonyl)ethyl]pyridine-2-carboxamide] | < 500 nM
17 | CCNC(=O)c1cc(CNc2ccccc2C(=O)Nc2ccc3c(c2)OC(F)(F)O3)ccn1 [Example 45, 4-{[(2-{[(2,2-difluoro-1,3-benzodioxol-5-yl)amino]carbonyl}phenyl)amino]methyl}-N-ethylpyridine-2-carboxamide] | < 500 nM
18 | O=C(Nc1ccc2c(c1)OC(F)(F)O2)c1ccccc1NCc1ccnc(NCCc2c[nH]cn2)c1 [Example 147, N-(2,2-difluoro-1,3-benzodioxol-5-yl)-2-{[(2-{[2-(1H-imidazol-4-yl)ethyl]amino}pyridin-4-yl)methyl]amino}benzamidebis(trifluoroacetate)] | < 500 nM

The next lines start with the values.

Row | IC50 | SMILES
19 | < 500 nM | O=C(Nc1ccc2c(c1)OC(F)(F)O2)c1cccnc1NCc1ccncc1 [Example 15, N-(2,2-difluoro-1,3-benzodioxol-5-yl)-2-[(pyridin-4-ylmethyl)amino]nicotinamide]
20 | < 500 nM | CNC(=O)c1cc(CNc2ccccc2C(=O)Nc2ccc3c(c2)OC(F)(F)O3)ccn1 [Example 24, 4-{[(2-{[(2,2-difluoro-1,3-benzodioxol-5-yl)amino]carbonyl}phenyl)amino]methyl}-N-methylpyridine-2-carboxamide]
21 | < 500 nM | NC(=O)c1cc(CNc2ccccc2C(=O)Nc2ccc3c(c2)OC(F)(F)O3)ccn1 [Example 75, 4-{[(2-{[(2,2-Difluoro-1,3-benzodioxol-5-yl)amino]carbonyl}phenyl)amino]methyl}pyridine-2-carboxamide]
22 | < 500 nM | CN(C)c1nccc(CNc2ccccc2C(=O)Nc2ccc3c(c2)OC(F)(F)O3)n1 [Example 48, N-(2,2-difluoro-1,3-benzodioxol-5-yl)-2-({[2-(dimethylamino)pyrimidin-4-yl]methyl}amino)benzamide]
23 | < 500 nM | COc1cccc(NCc2ccncc2)c1C(=O)Nc1ccc2c(c1)OC(F)(F)C(F)(F)O2 [Example 9, 2-methoxy-6-[(pyridin-4-ylmethyl)amino]-N-(2,2,3,3-tetrafluoro-2,3-dihydro-1,4-benzodioxin-6-yl)benzamide]
24 | < 500 nM | O=C(Nc1ccc2c(c1)OC(F)(F)O2)c1ccccc1NCc1ccncc1 [Example 5, N-(2,2-difluoro-1,3-benzodioxol-5-yl)-2-[(pyridin-4-ylmethyl)amino]benzamide]
